Read-outs that look alike come from different tables or passages of the source.
Assays:
Format in all cases: in vivo, humans
[1] = test system: bitter taste of KCl foodstuff slurries; assay: Two-alternative forced choice (2AFC) sip and spit test of KCl turkey foodstuff slurries; conditions: turkey slurry with KCl 1.6%, 1% EtOH, 2AFC vs KCl slurry standard, dash = at none of the tested conc.; for minimal effective concentration: Homo sapiens
Method: Edible KCl food compositions (“KCl test foodstuff slurries”) were prepared as follows. Dehydrated, salt-free turkey powder was weighed and mixed with various amounts of KCl and/or NaCl and then solubilized with boiling water to create a homogenized solubilized turkey slurry. Varying amounts of the test compounds were dissolved in an amount of ethanol or water (depending on the solubility of the compound) to create a 5 mg/mL stock compound solution. An amount of this stock compound solution was then added to the turkey slurry. Enough EtOH is then added to the resulting stock compound/turkey slurry so that the slurry contains 1% EtOH. The slurry was again homogenized by boiling and mixing and allowed to cool to yield the final KCl test foodstuff slurry for taste testing. KCl foodstuff slurry standards were similarly prepared without any test compound. […] The effect of the test compounds on the perception of the bitter taste of KCl foodstuff slurries in humans was evaluated using a two-alternative-forced-choice “sip and spit” test as follows. In a blind taste test, panelists received two portions of turkey slurry—one portion being the KCl foodstuff slurry standard and the other being one of the KCl test foodstuff slurries (each prepared as described in Example 5). The panelists tasted each of the portions by sipping and spitting. Each sample was tested in 2-4 discrete taste test experiments. Panelists were asked to rinse with water, eat a cracker, and wait about 10 minutes between samples. In each case, the panelists were asked to compare the bitter taste of the two turkey samples to each other (i.e. panelists were asked to indicate which sample was less bitter).

[2] = test system: bitter taste of an aqueous solution of KCl; assay: Sip and spit taste test of aqueous KCl test solutions, bitterness rated 0-15 against KCl solution standards; conditions: aqueous KCl 4.85 g/L, 1% EtOH, human panel, vs KCl solution standard, dash = at none of the tested conc.
Method: Edible KCl solution compositions (“KCl test solutions”) were prepared by first dissolving varying amounts of the test compounds in an amount of ethanol or water (depending on the solubility of the compound) to create a 5 mg/mL stock compound solution. An amount of this stock compound solution is then added to an aqueous KCl solution. Enough EtOH is then added to the resulting stock compound/KCl solution so that the final KCl test solution contains 1% EtOH. KCl solution standards were similarly prepared by dissolving various amounts of KCl in water and ethanol without adding any test compound. […] The effect of the test compounds on the perception of the bitter taste of an aqueous solution of KCl in humans was evaluated using a “sip and Spit” test as follows. A set of KCl solutions standards was developed and each standard solution was assigned a bitterness taste score of 0-15 (corresponding to aqueous KCl concentrations of 0 mM-120 mM). Panelists were trained to recognize these standards. In addition, before each day of testing, panelists were tested to see if they could determine differences in taste between the standard solutions, if a panelist was unable to recognize a change in KCl concentration, they were excluded from the panel for that day. In a blind taste test, panelists were asked to compare the bitter taste of a small quantity (e.g. 8 ml) of each of the KCl Test Solutions to the taste of a KCl solution standard, without swallowing (see, e.g., Table 1). Specifically, panelists were asked to rate the bitterness of each KCl Test Solution on a scale of 0-15 using the same scale developed for the KCl solution standards. Each sample was tested in 2-4 discrete taste test experiments. Panelists were asked to rinse with water, eat a cracker, and wait approximately 10 minutes between samples.

[3] = test system: bitter taste of an aqueous solution of potassium lactate; assay: Sip and spit taste test of aqueous potassium lactate test solutions; conditions: aqueous potassium lactate (KLac) 41 g/L, 1% EtOH, human panel, dash = at none of the tested conc.
Method: A set of KCl solutions standards was developed and each standard solution was assigned a bitterness taste score of 0-15 (corresponding to aqueous KCl concentrations of 0 mM-120 mM). Panelists were trained to recognize these standards. In addition, before each day of testing, panelists were tested to see if they could determine differences in taste between the standard solutions, if a panelist was unable to recognize a change in KCl concentration, they were excluded from the panel for that day. In a blind taste test, panelists were asked to compare the bitter taste of a small quantity (e.g. 8 ml) of each of the KCl Test Solutions to the taste of a KCl solution standard, without swallowing (see, e.g., Table 1). Specifically, panelists were asked to rate the bitterness of each KCl Test Solution on a scale of 0-15 using the same scale developed for the KCl solution standards. Each sample was tested in 2-4 discrete taste test experiments. Panelists were asked to rinse with water, eat a cracker, and wait approximately 10 minutes between samples. Edible potassium lactate solution compositions (“potassium lactate test solutions”) were prepared by first dissolving varying amounts of the test compounds in an amount of ethanol or water (depending on the solubility of the compound) to create a 5 mg/mL stock compound solution. An amount of this stock compound solution is then added to an aqueous potassium lactate solution. Enough EtOH is then added to the resulting stock compound/potassium lactate solution so that the final potassium lactate test solution contains 1% EtOH. Potassium lactate solution standards were similarly prepared by dissolving various amounts of potassium lactate in water and ethanol without adding any test compound. […] The effect of the test compounds on the perception of the bitter taste of an aqueous solution of potassium lactate in humans was evaluated using the “sip and spit” test described in Example 2.

[4] = read-out: Conc. at Which At Least 50% of Panelist Discerned Decrease in Bitter Taste
[5] = read-out: Conc. Where Decrease in Bitter Taste Discerned and p ≦ 0.1
[6] = read-out: Conc. Where Decrease in Bitter Taste Was Discerned
[7] = read-out: Conc. at Which At Least 50% of Panelist Discerned Decrease in Bitter Taste and p ≦ 0.1

`COc1cc(CO)ccc1OCc1ccccc1C` [Compound 1] showed a minimal effective concentration [1, 4] of 1 µg/mL.
For `COc1cc(/C=N/c2ccccc2C)ccc1O` [Compound 2], the minimal effective concentration [2, 5] was 1 µg/mL and the minimal effective concentration [1, 4] was 10 µg/mL.
In the case of `CCOc1ccc(CNc2ccccc2C)cc1OC` [Compound 3], the minimal effective concentration [2, 5] is reported as 2 µg/mL, the minimal effective concentration [2, 6] is reported as 2 µg/mL and the minimal effective concentration [3, 5] is reported as 1 µg/mL.
With `CCOc1cc(CNc2ccccc2SC)ccc1OC` [Compound 4] the minimal effective concentration [2, 5] was 10 µg/mL.
Work on `COc1cccc(CNc2cccc(C)c2)c1OC` [Compound 5] yielded a minimal effective concentration [2, 6] of 10 µg/mL.
In the case of `CCOc1cc(CNc2cccc(Cl)c2C)ccc1OC` [Compound 6], the minimal effective concentration [2, 6] is reported as 1 µg/mL.
For `COc1ccc(OC)c(CNc2cc(C)ccc2C)c1` [Compound 7], the “Conc. Where Decrease in Bitter Taste Discerned and p ≦ 0.1” value [2] was 1 ppm, the “Conc. Where Decrease in Bitter Taste Was Discerned” value [2] was 1 ppm and the “Conc. at Which At Least 50% of Panelist Discerned Decrease in Bitter Taste” value [1] was 1 ppm.
Compound `COc1ccc(CNc2ccc(Br)cc2C)cc1OC` [Compound 8] has a minimal effective concentration [2, 6] of 1 µg/mL.
With `CCOc1cc(CNc2ccccc2)ccc1OC` [Compound 10] the “Conc. Where Decrease in Bitter Taste Discerned and p ≦ 0.1” value [2] was 1 ppm.
Work on `CCOc1cc(CNc2cc(C)ccc2C)ccc1OC` [Compound 12] yielded a minimal effective concentration [2, 5] of 10 µg/mL and a minimal effective concentration [1, 4] of 10 µg/mL.
`COc1ccc(CNc2cc(C)ccc2C)cc1OC` [Compound 14] was tested, and the “Conc. Where Decrease in Bitter Taste Discerned and p ≦ 0.1” value [2] was 1 ppm and the “Conc. Where Decrease in Bitter Taste Was Discerned” value [3] was 5 ppm.
`COc1cccc(CNc2cc(C)ccc2C)c1OC` [Compound 15] showed a minimal effective concentration [2, 5] of 10 µg/mL, a minimal effective concentration [1, 4] of 10 µg/mL and a minimal effective concentration [1, 7] of 10 µg/mL.
`CCOc1ccc(CNc2ccc(C)cc2C)cc1OC` [Compound 17] was tested, and the “Conc. Where Decrease in Bitter Taste Was Discerned” value [2] was 1 ppm and the “Conc. Where Decrease in Bitter Taste Was Discerned” value [3] was 1 ppm.
`COc1ccccc1CNc1cc(C)ccc1OC` [Compound 19] showed a minimal effective concentration [2, 5] of 1 µg/mL, a minimal effective concentration [2, 6] of 1 µg/mL and a minimal effective concentration [1, 7] of 10 µg/mL.
`COc1ccc(NCc2ccccc2C)cc1OC` [Compound 20] showed a minimal effective concentration [2, 5] of 1 µg/mL and a minimal effective concentration [3, 5] of 5 µg/mL.
`COc1cc(CNc2cccc(C)c2C)ccc1OCc1ccccc1` [Compound 22] gave a minimal effective concentration [2, 5] of 1 µg/mL.
With `COC(=O)c1ccccc1NC(=O)c1c(Cl)cnn1C` [Compound 27] the minimal effective concentration [1, 4] was 30 µg/mL.
With `CCn1ncc(Cl)c1C(=O)Nc1cc(Cl)ccc1Cl` [Compound 28] the “Conc. at Which At Least 50% of Panelist Discerned Decrease in Bitter Taste” value [1] was 10 ppm.
For `CCn1ncc(Cl)c1C(=O)Nc1cccc(Cl)c1Cl` [Compound 29], the “Conc. Where Decrease in Bitter Taste Discerned and p ≦ 0.1” value [2] was 10 ppm, the “Conc. Where Decrease in Bitter Taste Was Discerned” value [3] was 5 ppm and the “Conc. at Which At Least 50% of Panelist Discerned Decrease in Bitter Taste” value [1] was 1 ppm. The “Conc. at Which At Least 50% of Panelist Discerned Decrease in Bitter Taste and p ≦ 0.1” value [1] was 1 ppm.
For `COC(=O)c1ccc(C)c(NC(=O)c2c(Cl)cnn2C)c1` [Compound 31], the “Conc. at Which At Least 50% of Panelist Discerned Decrease in Bitter Taste” value [1] was 1 ppm.
Compound `Cn1ncc(Cl)c1C(=O)Nc1ccccc1C(N)=O` [Compound 33] has a minimal effective concentration [2, 6] of 1 µg/mL.
For `CCn1ccc(C(=O)Nc2cc(OC)c(OC)cc2C(=O)OC)n1` [Compound 35], the minimal effective concentration [2, 5] was 1 µg/mL, the minimal effective concentration [2, 6] was 1 µg/mL and the minimal effective concentration [1, 4] was 10 µg/mL.
Compound `CCn1ccc(C(=O)Nc2ccccc2C(=O)OC)n1` [Compound 36] has a minimal effective concentration [2, 5] of 10 µg/mL and a minimal effective concentration [1, 4] of 10 µg/mL.
Work on `CC(=O)Oc1ccc(C2Nc3c(C(=O)O)cccc3C3C=CCC32)cc1` (centres unmarked) [Compound 39] yielded a minimal effective concentration [1, 7] of 10 µg/mL.
In the case of `COC(=O)c1cccc2c1NC(c1ccc(Cl)cc1)C1CC=CC21` (centres unmarked) [Compound 42], the minimal effective concentration [1, 4] is reported as 1 µg/mL.
Work on `O=C(O)c1cc(Br)cc2c1NC(c1ccc(Cl)cc1)C1CC=CC21` (centres unmarked) [Compound 43] yielded a minimal effective concentration [2, 6] of 1 µg/mL.
Work on `Cc1c2ccccc2nc2c(F)c(N3CCN(C)CC3)c(F)c(F)c12` [Compound 44] yielded a minimal effective concentration [2, 5] of 10 µg/mL, a minimal effective concentration [2, 6] of 10 µg/mL and a minimal effective concentration [3, 5] of 10 µg/mL. The minimal effective concentration [1, 4] was 10 µg/mL.
For `Cc1c2ccccc2nc2c(F)c(N3CCCC3)c(F)c(F)c12` [Compound 45], the minimal effective concentration [2, 5] was 0.1 µg/mL and the minimal effective concentration [1, 4] was 1 µg/mL.
With `Cc1ccc2nc3c(F)c(N4CCOCC4)c(F)c(F)c3c(C)c2c1` [Compound 46] the minimal effective concentration [2, 5] was 1 µg/mL, the minimal effective concentration [3, 6] was 30 µg/mL and the minimal effective concentration [1, 4] was 1 µg/mL.
`Cc1nc2c(C)ccc(C)c2c(O)c1CN1CCN(c2ccccc2)CC1` [Compound 47] showed a minimal effective concentration [1, 4] of 10 µg/mL and a minimal effective concentration [1, 7] of 10 µg/mL.
`Cc1nc2c(C)cccc2c(O)c1CN1CCN(c2ccccc2)CC1` [Compound 48] showed a minimal effective concentration [2, 5] of 1 µg/mL, a minimal effective concentration [3, 5] of 1 µg/mL and a minimal effective concentration [3, 6] of 1 µg/mL. It also gave a minimal effective concentration [1, 4] of 10 µg/mL.
Compound `CCCC(=O)Nc1ccc(C)c(Cl)c1` [Compound 50] has a minimal effective concentration [2, 6] of 1 µg/mL.
With `COc1ccc(NC(=O)CCOc2cccc(C)c2)cc1` [Compound 52] the “Conc. Where Decrease in Bitter Taste Discerned and p ≦ 0.1” value [2] was 10 ppm, the “Conc. Where Decrease in Bitter Taste Discerned and p ≦ 0.1” value [3] was 30 ppm and the “Conc. at Which At Least 50% of Panelist Discerned Decrease in Bitter Taste and p ≦ 0.1” value [1] was 10 ppm.
`Cc1ccc(NC(=O)CCOc2ccccc2)c(C)c1` [Compound 54] showed a minimal effective concentration [1, 4] of 1 µg/mL.

Source: patent US20130101684A1, “Compounds, Compositions, And Methods For Reducing Or Eliminating Bitter Taste” (Chromocell Corporation, priority 2010, published 2013)
